Test results taken from ChEMBL document CHEMBL1201862, “PubChem BioAssay data set” (2004).
Calls of active or inactive are those of the source.

Experiments:
Cytochrome P450 2D6 = Cytochrome P450 2D6 (Homo sapiens, UniProt P10635); test: qHTS Assay for Inhibitors and Substrates of Cytochrome P450 2D6. [Related pubchem assays: 410 ]; format: ADME; details: read-out: Potency
Cytochrome P450 3A4 = Cytochrome P450 3A4 (Homo sapiens, UniProt P08684); details: Potency;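 note: confirmatory qHTS run detecting inhibitors and substrates of CYP3A4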
HeLa = test: Cytotoxicity counterscreen assay for transcriptional activators of heat shock protein 70 (Hsp70). [Related pubchem assays: 1203, 1252 ]; format: functional; details: Homo sapiens;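 note: cells exposed to compound for 16 hours before readout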
[1] = microbe, parasite or virus in culture; format: functional; details: Mycobacterium tuberculosis
[2] = growth suppression of PTEN-null colon cells, dose response, cell-based, HCT116 PTEN knockout (AID 1047); format: functional;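 note: HCT116 colon tumor cells with PTEN knocked out; cells exposed to compound for 60 hours before readout; potency for loss of cell viability measured by luminescence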
[3] = growth suppression of beta-catenin-knockout colon cells, dose response, cell-based, HCT116, human colon tumor (AID 1045); format: functional;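 note: HCT116 colon tumor cells with beta catenin knocked out; cells exposed to compound for 60 hours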
[4] = THP-1 cell cytotoxicity, dose response, cytotoxicity control for non-replicating M. tuberculosis project (AID 489025); format: functional
[5] = Vero E6 cell cytotoxicity, dose response, cytotoxicity control for non-replicating M. tuberculosis project, secondary assay (AID 492998); format: functional, VeroE6; details: Vero C1008
cells [6] = format: functional
CHO = test: cytotoxicity in TLR9-MyD88 CHO cells, dose response, cytotoxicity control for TLR9-MyD88 binding inhibitor project, cell-based, luminescence (AID 588339); format: functional, hamster; details: Cricetulus griseus;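 note: CHO cells stably coexpressing TLR9 and MyD88 fusions from primary screen; compound exposure lasted 48 hours before viability readout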
Beta Lactamase = Beta Lactamase (Pseudomonas aeruginosa, UniProt Q932Y6); test: beta-lactamase reporter inhibitor potency, dose response, artefact control for TLR9-MyD88 binding inhibitor project, BLA reporter cells, FRET fluorescence (AID 588341); format: cell-based;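 note: cell based assay in CHO-K1 cells stably expressing beta-lactamase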
INS1 = test: beta cell apoptosis inhibitors, cytokine rescue, dose response, luminescence, retest (AID 449756); format: functional, cell-based; details: Rattus norvegicus;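 note: cell death triggered by IL-1 beta plus TNF-alpha plus IFN-gamma mixture; protective hits raise ATP signal compared with cytokine alone wells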
[7] = Fluorescence-based cell-based high throughput dose response assay for inhibitors of the interaction of nucleotide-binding oligomerization domain containing 2 (NOD2) and the receptor-interacting serine-threonine kinase 2 (RIPK2).; format: functional; details: Homo sapiens
[8] = target: Photoreceptor-specific nuclear receptor (Homo sapiens, UniProt Q9Y5X4); format: functional, cell-based;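 note: CHO-S cells with Gal4-NCOR and VP16-NR2E3 two-hybrid luciferase reporter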
Paired box protein Pax-8 = Paired box protein Pax-8 (Homo sapiens, UniProt Q06710); test: inhibitors of PAX8-driven TPO luciferase reporter, dose response, RMG-I cells, cherry-pick (AID 687027); format: functional, cell-based;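 note: luciferase reporter driven by Pax8 target thyroperoxidase promoter measured by SteadyGlo luminescence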
[9] = non-specific cell cytotoxicity, dose response, cytotoxicity control for PAX8 inhibitor project, plate reader, dry powder samples (AID 743021); format: functional, cell-based
NS3 = NS3 (Hepatitis C virus, UniProt A3EZJ3); test: PubChem AID 2173; parameters: species or system Hepacivirus hominis
[10] = tested on: Streptococcus sp. 'group A'; test: growth inhibition of control SK(-) GAS strain, dose response, counter-screen for streptokinase expression inhibitor project, luminescence, kanamycin, BacTiterGlo, confirmation (AID 1900); format: functional, organism-based
Streptococcus [11] = test: Luminescence Microorganism-Based Dose Response Follow up to Identify Compounds Cytotoxic to Streptococcus. [Related pubchem assays: 1677 (Project Summary), 1915, 1914, 1902 (Retest at Dose), 1900 (Counter Screen), 1662 (Primary HTS)]; format: functional, organism-based
Streptokinase A = target: T1, Streptokinase A (Streptococcus pyogenes serotype M1, UniProt P10520); test: S. pyogenes streptokinase expression inhibitors, potency, dose response, plasminogen activation absorbance, OD405 (AID 1914); format: functional, Streptococcus pyogenes M1 GAS;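 note: secreted streptokinase activity via plasminogen activation per viability signal from cell pellet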
T1 sequence (P10520 whole entry): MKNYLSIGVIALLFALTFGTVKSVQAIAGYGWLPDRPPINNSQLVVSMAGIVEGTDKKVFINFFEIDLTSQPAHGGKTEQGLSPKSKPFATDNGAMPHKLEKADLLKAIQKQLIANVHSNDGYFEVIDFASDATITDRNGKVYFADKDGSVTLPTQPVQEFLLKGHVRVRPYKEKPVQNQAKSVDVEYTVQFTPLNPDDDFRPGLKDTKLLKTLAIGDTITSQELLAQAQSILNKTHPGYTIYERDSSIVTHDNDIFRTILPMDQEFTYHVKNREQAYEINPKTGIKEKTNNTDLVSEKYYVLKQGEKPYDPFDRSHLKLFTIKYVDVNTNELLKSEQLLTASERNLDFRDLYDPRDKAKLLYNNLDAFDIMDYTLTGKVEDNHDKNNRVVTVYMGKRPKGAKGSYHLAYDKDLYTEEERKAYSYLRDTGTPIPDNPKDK

Streptococcus [12] = test: Group A Streptococcus viability loss, dose response, counter-screen for streptokinase expression inhibitor project, luminescence, BacTiterGlo (AID 1915); format: functional, organism-based;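 note: potency for reduction of bacterial viability or growth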
[13] = inhibitors of firefly luciferase expression or activity, dose response, H4 neuroglioma cells, luminescence (AID 1990); format: functional, cell-based
[14] = luciferase reporter signal reduction – luminescence, H4-C neuroglioblastoma cells, dose response (AID 2458); format: functional, cell-based;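 note: H4 neuroglioblastoma cells stably carrying a luciferase reporter gene fusion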
Aminopeptidase N = target: T2, Aminopeptidase N (Plasmodium falciparum FcB1/Columbia, UniProt O96935); test: P. falciparum M1AAP inhibitors, biochemical, fluorogenic H-Leu-NHMec substrate, 1536-well (AID 1445); parameters: species or system Plasmodium falciparum 3D7, 3D7
T2 sequence (O96935 whole entry): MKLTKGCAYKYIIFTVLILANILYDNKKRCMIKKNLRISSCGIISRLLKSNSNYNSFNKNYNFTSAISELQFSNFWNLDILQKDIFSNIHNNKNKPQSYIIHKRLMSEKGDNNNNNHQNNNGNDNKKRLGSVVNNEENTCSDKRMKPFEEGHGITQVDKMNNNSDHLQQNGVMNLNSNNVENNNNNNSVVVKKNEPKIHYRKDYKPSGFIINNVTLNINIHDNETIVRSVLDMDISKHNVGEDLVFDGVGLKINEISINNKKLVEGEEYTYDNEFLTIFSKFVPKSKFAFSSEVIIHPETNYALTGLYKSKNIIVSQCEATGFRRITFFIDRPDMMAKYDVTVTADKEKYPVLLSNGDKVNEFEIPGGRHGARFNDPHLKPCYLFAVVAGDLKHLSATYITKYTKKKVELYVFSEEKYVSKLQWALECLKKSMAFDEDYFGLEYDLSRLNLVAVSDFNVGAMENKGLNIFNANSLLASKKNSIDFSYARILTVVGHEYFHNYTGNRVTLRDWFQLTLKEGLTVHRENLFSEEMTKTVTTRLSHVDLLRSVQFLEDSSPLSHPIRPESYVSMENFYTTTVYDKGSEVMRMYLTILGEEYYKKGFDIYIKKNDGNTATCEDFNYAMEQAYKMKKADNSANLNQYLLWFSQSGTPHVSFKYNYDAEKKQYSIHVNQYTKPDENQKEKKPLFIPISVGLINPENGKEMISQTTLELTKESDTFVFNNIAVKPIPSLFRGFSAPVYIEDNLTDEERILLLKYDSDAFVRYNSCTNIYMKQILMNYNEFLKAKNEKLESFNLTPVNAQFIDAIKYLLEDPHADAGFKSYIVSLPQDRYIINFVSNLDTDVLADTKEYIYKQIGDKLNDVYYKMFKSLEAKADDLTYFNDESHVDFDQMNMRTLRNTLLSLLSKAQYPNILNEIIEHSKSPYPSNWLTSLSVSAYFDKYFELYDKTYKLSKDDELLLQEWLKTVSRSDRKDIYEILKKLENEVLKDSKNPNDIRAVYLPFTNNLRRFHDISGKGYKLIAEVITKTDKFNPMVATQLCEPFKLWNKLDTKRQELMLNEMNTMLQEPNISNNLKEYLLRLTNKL

BJ [15] = test: cytotoxicity toward BJ-TERT fibroblasts, dose response, cell-based, RAS-independent, luminescence (AID 1933); format: functional; details: Homo sapiens
cells [16] = format: functional, cell-based
[17] = Luminescence Cell-Based Dose Response HTS to Identify Inhibitors of 5'UTR Stem-Loop Driven Prion Protein mRNA Translation in H4 Neuroglioblastoma Cells. [Related pubchem assays: 1827 (Project Summary), 1813 (Primary HTS)]; format: functional
[18] = inhibitors of SNCA 5'UTR-driven reporter translation, confirmation, H4 neuroglioma cells, luminescence (AID 1988); format: functional, cell-based
BJ [19] = test: cells; format: functional, cell-based; details: Homo sapiens
[20] = Luminescence-based dose response cell-based high throughput screening assay for cytotoxic compounds using the IEC-6 intestinal epithelial cell line. [Related pubchem assays: 1858 (Summary AID.), 1825 (Counterscreen.), 1907 (Confirmation screen.)]; format: functional
BJ [21] = test: cytotoxicity toward BJ-TERT-LT-ST fibroblasts, dose response, cell-based, RAS-independent, luminescence (AID 1935); format: functional; details: Homo sapiens;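 note: BJ fibroblasts immortalized with TERT plus LT and ST oncogenes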
[22] = inhibitors of SNCA 5'UTR-driven translation, confirmation, luminescence, H4 neuroglioblastoma cells, dose confirmation (AID 2454); format: functional, cell-based;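 note: H4 neuroglioblastoma cells carrying an alpha-synuclein 5'UTR luciferase reporter; potency for inhibition of the luciferase signal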
HEK293 = test: inhibitors of LMP1-driven NF-kB reporter, dose response, cell-based, HEK293, luciferase, cherry-pick (AID 588343); format: functional; details: Homo sapiens
BJ [23] = test: cytotoxicity toward Ras-transformed BJeLR fibroblasts, dose response, cell-based, alamar blue fluorescence, cherrypicked samples (AID 2631); format: functional; details: Homo sapiens;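 note: confirmatory dose-response assay in RAS-dependent BJ fibroblasts engineered with TERT, LT and ST, with cytotoxicity read by fluorescence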
[24] = target: T3, Alkaline phosphatase, tissue-nonspecific isozyme (Homo sapiens, UniProt P05186)
T3 sequence (P05186 whole entry): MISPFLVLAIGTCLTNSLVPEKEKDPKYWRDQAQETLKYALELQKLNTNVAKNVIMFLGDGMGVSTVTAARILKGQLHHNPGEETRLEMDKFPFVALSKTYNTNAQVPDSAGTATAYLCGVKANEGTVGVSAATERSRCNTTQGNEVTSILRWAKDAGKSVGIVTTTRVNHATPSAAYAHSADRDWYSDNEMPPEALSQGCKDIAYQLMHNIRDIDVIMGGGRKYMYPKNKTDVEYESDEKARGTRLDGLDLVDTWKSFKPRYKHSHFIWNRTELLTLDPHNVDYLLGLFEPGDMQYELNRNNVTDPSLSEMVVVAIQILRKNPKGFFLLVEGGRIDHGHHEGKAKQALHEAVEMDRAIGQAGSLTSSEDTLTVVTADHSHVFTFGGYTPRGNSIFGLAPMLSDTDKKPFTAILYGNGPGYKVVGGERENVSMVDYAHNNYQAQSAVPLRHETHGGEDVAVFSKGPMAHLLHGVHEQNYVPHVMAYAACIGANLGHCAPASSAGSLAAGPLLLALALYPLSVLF

[25] = target: G2/mitotic-specific cyclin-B1 (Homo sapiens, UniProt P14635); test: Counterscreen assay for inhibitors of Wee1 degradation: dose response cell-based assay to identify inhibitors of cyclin B degradation. [Related pubchem assays: 1410, 1321 ]; format: functional
Wee1-like protein kinase = Wee1-like protein kinase (Homo sapiens, UniProt P30291); test: Dose Response Cell-based Assay for Inhibitors of Wee1 Degradation. [Related pubchem assays: 1410, 1321 ]; format: functional
Bcl-2-like protein 10 = Bcl-2-like protein 10 (Homo sapiens, UniProt Q9HD36); test: Biochemical TR3 FP assay of Bcl-B inhibitor potency, EC50 (AID 1243); format: functional
Bcl-2-like protein 10, sequence (Q9HD36 whole entry): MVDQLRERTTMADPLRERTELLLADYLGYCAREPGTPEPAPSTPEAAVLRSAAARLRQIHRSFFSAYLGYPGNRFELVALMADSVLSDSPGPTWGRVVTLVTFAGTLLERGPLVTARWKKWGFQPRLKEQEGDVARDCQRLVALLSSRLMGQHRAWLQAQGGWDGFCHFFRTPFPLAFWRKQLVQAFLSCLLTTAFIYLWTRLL

Cytochrome P450 2D6, sequence (P10635 whole entry): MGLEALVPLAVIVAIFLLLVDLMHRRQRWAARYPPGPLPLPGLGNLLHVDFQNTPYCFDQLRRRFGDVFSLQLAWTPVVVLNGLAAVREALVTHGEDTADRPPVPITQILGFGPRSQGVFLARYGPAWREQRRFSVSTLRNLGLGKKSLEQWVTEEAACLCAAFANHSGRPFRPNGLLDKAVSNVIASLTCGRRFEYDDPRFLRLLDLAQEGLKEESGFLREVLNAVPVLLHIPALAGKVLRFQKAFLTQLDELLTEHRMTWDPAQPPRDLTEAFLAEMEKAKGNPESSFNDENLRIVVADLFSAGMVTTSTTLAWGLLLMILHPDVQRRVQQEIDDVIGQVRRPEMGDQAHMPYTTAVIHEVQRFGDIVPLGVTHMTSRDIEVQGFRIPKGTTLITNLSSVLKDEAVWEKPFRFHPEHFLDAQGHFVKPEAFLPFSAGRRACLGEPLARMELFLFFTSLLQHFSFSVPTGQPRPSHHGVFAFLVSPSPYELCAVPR
Beta Lactamase, sequence (Q932Y6 whole entry): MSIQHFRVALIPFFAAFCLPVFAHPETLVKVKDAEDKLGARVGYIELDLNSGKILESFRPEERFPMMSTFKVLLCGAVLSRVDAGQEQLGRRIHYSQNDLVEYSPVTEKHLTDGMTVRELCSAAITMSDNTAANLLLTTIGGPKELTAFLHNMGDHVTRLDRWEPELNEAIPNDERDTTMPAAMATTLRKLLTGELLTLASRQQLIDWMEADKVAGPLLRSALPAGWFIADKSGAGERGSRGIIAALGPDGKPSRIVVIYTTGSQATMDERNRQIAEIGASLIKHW
NS3, sequence (A3EZJ3 whole entry): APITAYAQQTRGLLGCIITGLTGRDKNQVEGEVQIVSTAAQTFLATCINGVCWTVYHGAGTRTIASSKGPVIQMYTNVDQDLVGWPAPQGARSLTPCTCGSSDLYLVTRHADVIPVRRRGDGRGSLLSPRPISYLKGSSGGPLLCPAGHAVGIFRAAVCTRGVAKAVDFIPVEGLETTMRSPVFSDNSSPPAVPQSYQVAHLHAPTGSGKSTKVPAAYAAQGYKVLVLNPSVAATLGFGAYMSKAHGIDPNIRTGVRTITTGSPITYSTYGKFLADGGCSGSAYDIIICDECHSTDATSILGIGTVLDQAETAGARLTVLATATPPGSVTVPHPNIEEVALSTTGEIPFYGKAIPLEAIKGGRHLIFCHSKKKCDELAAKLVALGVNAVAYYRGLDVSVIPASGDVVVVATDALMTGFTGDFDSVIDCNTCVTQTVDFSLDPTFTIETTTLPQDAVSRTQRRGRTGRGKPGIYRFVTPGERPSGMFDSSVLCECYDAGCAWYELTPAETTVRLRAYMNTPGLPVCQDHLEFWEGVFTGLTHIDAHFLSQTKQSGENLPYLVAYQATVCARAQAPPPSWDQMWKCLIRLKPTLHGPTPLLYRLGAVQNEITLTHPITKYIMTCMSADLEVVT
G2/mitotic-specific cyclin-B1, sequence (P14635 whole entry): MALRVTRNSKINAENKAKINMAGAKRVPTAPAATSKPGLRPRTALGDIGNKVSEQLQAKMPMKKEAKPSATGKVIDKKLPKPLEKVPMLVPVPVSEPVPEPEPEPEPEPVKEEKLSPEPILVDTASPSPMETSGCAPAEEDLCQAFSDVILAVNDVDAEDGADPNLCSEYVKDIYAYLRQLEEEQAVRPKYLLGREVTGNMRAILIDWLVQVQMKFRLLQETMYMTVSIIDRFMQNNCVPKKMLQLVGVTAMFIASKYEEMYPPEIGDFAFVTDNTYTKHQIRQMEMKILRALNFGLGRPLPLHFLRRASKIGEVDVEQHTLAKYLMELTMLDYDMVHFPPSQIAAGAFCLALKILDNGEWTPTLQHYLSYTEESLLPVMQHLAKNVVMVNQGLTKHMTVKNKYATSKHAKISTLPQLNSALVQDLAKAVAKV
Cytochrome P450 3A4, sequence (P08684 whole entry): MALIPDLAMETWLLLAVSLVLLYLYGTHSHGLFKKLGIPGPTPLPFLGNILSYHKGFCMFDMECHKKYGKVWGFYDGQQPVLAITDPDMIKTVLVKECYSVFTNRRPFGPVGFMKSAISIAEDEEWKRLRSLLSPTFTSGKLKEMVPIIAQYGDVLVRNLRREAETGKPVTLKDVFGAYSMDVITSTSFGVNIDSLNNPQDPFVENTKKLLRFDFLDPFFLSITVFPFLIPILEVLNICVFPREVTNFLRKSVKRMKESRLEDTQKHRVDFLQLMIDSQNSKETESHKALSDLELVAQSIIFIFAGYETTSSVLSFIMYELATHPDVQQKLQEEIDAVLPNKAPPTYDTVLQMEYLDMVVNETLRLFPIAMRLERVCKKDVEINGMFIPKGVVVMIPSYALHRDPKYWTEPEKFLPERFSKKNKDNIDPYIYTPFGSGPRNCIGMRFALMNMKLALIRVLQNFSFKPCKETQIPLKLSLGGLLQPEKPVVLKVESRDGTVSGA
Photoreceptor-specific nuclear receptor, sequence (Q9Y5X4 whole entry, the tested form may be a part): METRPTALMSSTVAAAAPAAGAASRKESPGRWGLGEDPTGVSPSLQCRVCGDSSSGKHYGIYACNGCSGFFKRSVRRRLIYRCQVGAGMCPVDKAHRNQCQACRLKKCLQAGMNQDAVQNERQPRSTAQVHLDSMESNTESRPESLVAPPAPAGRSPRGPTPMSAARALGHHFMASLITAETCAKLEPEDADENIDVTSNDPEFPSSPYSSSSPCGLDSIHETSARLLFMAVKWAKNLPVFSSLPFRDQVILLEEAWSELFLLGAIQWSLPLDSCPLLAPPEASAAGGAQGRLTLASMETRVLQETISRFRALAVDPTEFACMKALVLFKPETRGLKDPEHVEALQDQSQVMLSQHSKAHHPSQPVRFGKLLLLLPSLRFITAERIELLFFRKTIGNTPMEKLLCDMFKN
Wee1-like protein kinase, sequence (P30291 whole entry): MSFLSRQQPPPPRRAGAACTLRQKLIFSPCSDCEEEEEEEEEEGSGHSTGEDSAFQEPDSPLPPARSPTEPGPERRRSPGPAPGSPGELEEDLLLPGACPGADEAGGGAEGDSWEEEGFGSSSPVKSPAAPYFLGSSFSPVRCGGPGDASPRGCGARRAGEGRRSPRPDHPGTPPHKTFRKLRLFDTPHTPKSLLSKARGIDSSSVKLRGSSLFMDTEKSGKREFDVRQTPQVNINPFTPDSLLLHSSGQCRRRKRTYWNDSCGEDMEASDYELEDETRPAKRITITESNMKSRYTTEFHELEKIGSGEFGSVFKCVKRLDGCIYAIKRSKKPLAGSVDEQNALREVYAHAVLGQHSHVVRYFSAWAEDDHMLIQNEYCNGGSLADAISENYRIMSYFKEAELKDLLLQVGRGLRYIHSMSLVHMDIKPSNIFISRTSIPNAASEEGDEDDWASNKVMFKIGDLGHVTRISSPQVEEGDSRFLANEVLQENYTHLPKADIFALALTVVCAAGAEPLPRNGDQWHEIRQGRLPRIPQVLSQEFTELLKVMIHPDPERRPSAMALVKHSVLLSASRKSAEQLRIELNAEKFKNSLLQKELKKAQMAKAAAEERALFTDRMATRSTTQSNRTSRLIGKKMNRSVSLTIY
Paired box protein Pax-8, sequence (Q06710 whole entry): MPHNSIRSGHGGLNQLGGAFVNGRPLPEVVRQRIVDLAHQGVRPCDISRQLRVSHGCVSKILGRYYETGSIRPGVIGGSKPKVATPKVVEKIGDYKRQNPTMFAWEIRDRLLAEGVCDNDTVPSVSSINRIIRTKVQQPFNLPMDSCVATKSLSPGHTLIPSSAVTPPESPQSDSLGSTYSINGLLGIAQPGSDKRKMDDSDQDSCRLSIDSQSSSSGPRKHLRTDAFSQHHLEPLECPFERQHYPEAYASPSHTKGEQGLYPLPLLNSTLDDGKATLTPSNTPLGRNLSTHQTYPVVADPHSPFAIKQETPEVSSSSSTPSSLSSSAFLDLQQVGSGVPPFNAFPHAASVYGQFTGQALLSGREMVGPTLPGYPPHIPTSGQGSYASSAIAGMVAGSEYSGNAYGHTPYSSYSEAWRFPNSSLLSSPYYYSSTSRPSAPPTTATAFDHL

In the case of `COc1cccc2[nH]c(-c3ccccn3)nc12`, the AC50 (Cytochrome P450 2D6) is reported as 1580 nM (inconclusive) and the AC50 (Cytochrome P450 3A4) is reported as 3980 nM (inconclusive).

In the case of `COc1cc(OC)nc(-n2ncc(Br)c(Br)c2=O)n1`, the CC50 (HeLa) is reported as > 1220 nM (not active), the CC50 [1] is reported as 1980 nM (active) and the EC50 [2] is reported as < 59 nM (active). For the same molecule, the EC50 [3] was < 59 nM (active), the CC50 [4] was 402 nM (active) and the CC50 [5] was 1360 nM (active). For the same molecule, the IC50 (cells [6]) was 6730 nM (active), the IC50 (CHO) was 546 nM (active) and the IC50 (Beta Lactamase) was > 49700 nM (inactive). For the same molecule, the AC50 (INS1) was 6030 nM (active), the IC50 [7] was 1180 nM (active) and the IC50 [8] was 2690 nM (active). The AC50 (Paired box protein Pax-8) was 2660 nM (active) and the AC50 [9] was 20600 nM (active).

For `CCC(C(=O)O)n1nnc(-c2ccc(-c3ccc(OC)cc3)cc2)n1` (stereo not drawn), the IC50 (NS3) was 8420 nM (active).

In the case of `CCOc1ccc(Cl)cc1S(=O)(=O)n1cnc2cc(C)c(C)cc21`, the EC50 [10] is reported as 23800 nM (active), the EC50 (Streptococcus [11]) is reported as > 500000 nM (not active) and the EC50 (Streptokinase A) is reported as 7310 nM (active). For the same molecule, the EC50 (Streptococcus [12]) was > 150000 nM (not active).

With `Cc1nc(N)nc(N)c1/C=C/C(C)(C)c1ccc(Cl)cc1` the EC50 [13] was < 100 nM (active), the EC50 [14] was 9 nM (active) and the IC50 (Aminopeptidase N) was 66200 nM (active). The EC50 (BJ [15]) was 15900 nM (active), the EC50 (cells [16]) was 12 nM (active) and the EC50 [17] was < 100 nM (active). The EC50 [18] was < 100 nM (active), the EC50 (BJ [19]) was < 120 nM (active) and the IC50 [20] was > 2.02 nM (active). For the same molecule, the EC50 (BJ [21]) was > 150000 nM (inconclusive), the EC50 [22] was < 1 nM (active) and the AC50 (HEK293) was 45.8 nM (active). The EC50 (BJ [23]) was > 133000 nM (inactive).

For `CCCCNC(=O)CSc1nc2cc3c(cc2c(=O)n1CCC(=O)NCCc1ccc(OC)c(OC)c1)OCO3`, the EC50 [24] was > 100000 nM (not active).

For `COc1ccc(Nc2oc(-c3ccc(OC)cc3)nc2C#N)cc1`, the EC50 [25] was > 49700 nM (not active) and the EC50 (Wee1-like protein kinase) was > 49700 nM (not active).

For `Cc1ccc(C)n1-c1ccc(C(=O)O)c(Cl)c1`, the EC50 (Bcl-2-like protein 10) was 9960 nM (active).
